In patent US20020076393A1, “Method for stimulation of defensin production” (MAGAININ PHARMACEUTICALS, INC., priority 1998, published 2002):

Legend:
[1] = system: defensin production in MDBK cells; assay: Defensin induction in MDBK cells (RNA-PCR / QPCR of β-defensin RNA); format: cell-based, bovine; details: for effect on defensin production: at concentrations as high as fifty micrograms per milliliter
Description: Cell Culture: MDBK (Madin-Darby Bovine Kidney) cells were obtained from the ATCC (Rockville, Md.) and were maintained in growth medium consisting of Eagle's modified essential media with Earle's balanced salt solution, 10% horse serum, 0.10 mM non-essential amino acids and no antibiotics. For stimulation experiments, cells were plated into six well tissue culture plates and maintained for three days in growth medium until cells were almost confluent. The medium was then changed to serum-free epithelial cell growth medium (Clonetics, San Diego, Calif.) and the test material was added to the dish. Twenty-four hours later, the medium was withdrawn and cells were rinsed with phosphate-buffered saline. Total RNA was then isolated using Trizol reagent (Gibco/BRL, Grand Island, N.Y.) according to protocols supplied by the manufacturer. RNA was quantified by measuring the OD260 of each sample.
RNA-Polymerase Chain Reaction: Total RNA was treated with DNase prior to reverse transcription and PCR. The DNase was heat inactivated at 65° C. in the presence of EDTA for ten minutes. Reverse transcription and PCR were performed essentially as described for the GeneAmp RNA PCR kit (Perkin Elmer, Foster City, Calif.). Briefly, approximately 250 nanograms of total RNA was primed with polydT and reverse transcribed with Murine Leukemia Virus reverse transcriptase in a total volume of 16 μL at room temperature for ten minutes and then at 42° C. for an additional fifteen minutes. The reverse transcriptase was heat inactivated at 99° C. for five minutes and the reaction was chilled to 4 degrees C. This reverse transcription reaction was then split in half: one portion was used for amplification of the target defensin RNA, and the other was treated in parallel to determine the β-tubulin RNA level as a control. Additional reagents necessary for the PCR reaction, including appropriate synthetic DNA primers;
were added after splitting the reverse transcription reactions to bring the reaction volumes to 40 μL. The reactions were then subjected to thermal cycling as follows: 95° C. for one minute, 52° C. for one minute, 72° C. for one minute for 30 cycles followed by a single 72° C. incubation for fifteen minutes to allow for extension. The expected 200 base pair β-defensin PCR product was measured by gel electrophoresis or QPCR (Quantitative PCR).
Product Capture for QPCR System: 10 μL of the final PCR mixture was combined with 15 μL of strepavidin bead slurry (Perkin-Elmer, Foster City, Calif.), 21 μL H2O and 4 μL of 10× PCR buffer to yield a 50 μL binding reaction. The binding reactions were incubated at room temperature for fifteen minutes with occasional agitation. One ml of QPCR assay buffer was then added to the reaction. The quantity of PCR product was subsequently measured with the Perkin-Elmer QPCR instrument (Perkin-Elmer, Foster City, Calif.). The amount of defensin product was normalized to endogenous expression in MDBK cells in the absence of any experimental agent.

[2] = system: defensin production in epithelial cells; assay: Defensin inducing effect of isoleucine analogs in epithelial cells (FIGS. 6-9); format: cell-based; details: for defensin induction: epithelial cells, FIGS. 6, 7 and 8
[3] = system: defensin production in HT-29 cells; assay: Defensin induction in the human colon epithelial cell line HT-29; format: cell-based; details: FIG. 5

Compound: CC[C@@H](C)[C@H](N)C(=O)O [alloisoleucine]
- effectiveness as inducer of defensin production compared with isoleucine ([1]; FIG. 4): not as effective an inducer

Compound: CC[C@H](C)[C@H](N)C(=O)NO [isoleucine hydroxamate]
- defensin induction [2]: inducers of defensin production

Compound: CC(C)[C@H](N)C(=O)O [L-valine]
- stimulation of defensin expression, concentrations compared with isoleucine ([2]; FIG. 9): stimulates defensin expression at concentrations that are substantially higher than those needed for isoleucine
- effect on defensin production [1]: no effect

Compound: CC[C@H](C)C(=O)C(=O)O [alpha-keto-methylvalerate]
- defensin induction [2]: inducers of defensin production

Compound: CC[C@H](C)[C@H](N)C(=O)O [L-isoleucine]
- defensin induction [3]: defensin inducing property
- dose-response effect on defensin production ([1]; FIG. 2): dose-dependent effect
- concentration increasing defensin production, fold less than that of D-isoleucine ([1]; L-isoleucine versus D-isoleucine, FIGS. 2 and 3): fifty to one-hundred

Compound: COC(=O)[C@@H](N)Cc1ccc(O)cc1 [L-tyrosine methyl ester, reference compound]
- effect on defensin production [1]: no effect
